Measured values: ChEMBL document CHEMBL1130861, “Synthesis and proteinase inhibitory properties of diphenyl phosphonate analogues of aspartic and glutamic acids” (1998)

Experiments:
[1] = target: Granzyme B (Homo sapiens) (UniProt P10144); test: Apparent second-order rate constant was determined by the inhibition of Granzyme B with the compound at the concentration 150 mM; ki/Ki(1/M*s), Not inhibited
Staphylococcus aureus = test: Apparent second-order rate constant was determined by the inactivation of Staphylococcus aureus V8 proteinase with the compound at the concentration 100 mM(pH 7.4); ki/Ki(1/M*s); assay type: functional

Sequence of Granzyme B (Homo sapiens) (P10144 whole entry): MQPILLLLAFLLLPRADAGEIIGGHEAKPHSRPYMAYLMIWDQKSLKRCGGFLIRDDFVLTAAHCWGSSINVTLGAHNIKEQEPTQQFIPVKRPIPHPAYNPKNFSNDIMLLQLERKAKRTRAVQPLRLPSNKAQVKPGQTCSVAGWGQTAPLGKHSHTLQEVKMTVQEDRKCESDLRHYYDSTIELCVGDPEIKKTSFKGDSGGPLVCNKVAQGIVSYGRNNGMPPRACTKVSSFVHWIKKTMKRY

Structure (SMILES)	Activity [1]	Activity (Staphylococcus aureus)
CC(=O)N[C@H](CC(=O)O)P(=O)(Oc1ccccc1)Oc1ccccc1	No inhibition	5
CC(=O)N[C@H](CCC(=O)O)P(=O)(Oc1ccccc1)Oc1ccccc1	No inhibition	5.3
